Patent EP4000400A1, “HERBICIDE COMBINATION COMPRISING GLUFOSINATE, SA[…] TRIFLUDIMOXAZIN” (BASF SE, priority 2020, dated 2022)

Columns and labels:
LAMAM = assay: Post-emergence weed control, field (Example 3), percent injury 17 DAT; format: in vivo, Lamium amplexicaule
Text: (§1) The herbicide compounds applied in the examples were used as experimental or commercially available solo or premix formulations which have been diluted with tap water to a suitable concentration. Glufosinate was used as a commercial SL formulation containing 280 g ai/I of glufosinate (Liberty 280 SL, BASF). While the PPO herbicides saflufenacil and trifludimoxazin were used as solo (saflufenacil - Sharpen/Heat herbicide 342 SC, BASF, or trifludimoxazin - Vulcarus 500 SC, BASF), or a premix of saflufenacil + trifludimoxazin as a 250 + 125 g ai/I SC formulation.
(§2) The evaluation for plant injury or damage caused by the chemical compositions was carried out using a scale from 0 - 100% when compared with the untreated control plants. Here, 0 means no damage and 100 means complete destruction of the plants.
(§3) A natural field population of common chickweed (Stellaria media; STEME), purple cudweed (Gnaphalium purpureum; GNAPU), henbit (Lamium amplexicaule; LAMAM), and annual bluegrass (Poa annua; POAAN) were treated with postemergence applications of either glufosinate at 450 or 655 g ai/ha, saflufenacil + trifludimoxazin at 1.7 + 0.8, or 4.2 + 2.1 g ai/ha, or the combination of glufosinate and saflufenacil + trifludimoxazin at 450 and 1.7 + 0.8, or 4.2 + 2.1 g ai/ha, respectively, when they were 7.6 - 15 cm in height. […]

LOLMU = assay: Post-emergence weed control, greenhouse (Example 1), percent injury 14 DAT; format: in vivo; details: Lolium multiflorum, 336 h, Glufosinate 450 g/ha, read-out: Herbicidal action against LOLMU (% activity compared to untreated) Found
Text: as §1, §2
22., E=X+Y-(X*Y/100), where X = effect in percent using herbicide A at an application rate of a; Y = effect in percent using herbicide B at an application rate of b; E = expected effect (in %) of A + B at application rates a + b.
The value E corresponds to the effect (plant damage or injury) which is to be expected if the activity of the individual compounds is just additive. If the observed effect is higher than the value E calculated according to Colby, a synergistic effect is present. […]

CARPA = assay: Post-emergence weed control, field (Example 2), percent injury 16 DAT; format: in vivo, Cardamine parviflora
Text: as §1, §2
(§4) A natural field population of small flowered bittercress (Cardamine parviflora; CARPA), cressleaf grounsel (Senecio glabellus; SENGL), cutleaf evening primrose (Oenothera laciniate; OEOLA), and annual bluegrass (Poa annua; POAAN) were treated with postemergence applications of either glufosinate at 450 or 655 g ai/ha, saflufenacil + trifludimoxazin at 1.7 + 0.8, or 4.2 + 2.1 g ai/ha, or the combination of glufosinate and saflufenacil + trifludimoxazin at 450 and 1.7 + 0.8, or 4.2 + 2.1 g ai/ha, respectively, when they were 10 - 25 cm in height. […]

SENGL = assay: as above; format: in vivo, Senecio glabellus
Text: as §1, §2, §4

POAAN [1] = assay: as above; format: in vivo, Poa annua
Text: as §1, §2, §4

STEME = assay: Post-emergence weed control, field (Example 3), percent injury 17 DAT; format: in vivo, Stellaria media
Text: as §1, §2, §3

OEOLA = assay: Post-emergence weed control, field (Example 2), percent injury 16 DAT; format: in vivo, Oenothera laciniate
Text: as §1, §2, §4

POAAN [2] = assay: Post-emergence weed control, field (Example 3), percent injury 17 DAT; format: in vivo, Poa annua
Text: as §1, §2, §3

GNAPU = assay: as above; format: in vivo, Gnaphalium purpureum
Text: as §1, §2, §3

With `CP(=O)(O)CCC(N)C(=O)O` (racemic) [Glufosinate, (2RS)-2-amino-4-[hydroxy(methyl)phosphinoyl]butyric acid] the “Mean % Control (17 DAT) LAMAM” value (LAMAM; 450 g ai/ha) was 50.0%, the “Mean % Control (17 DAT) LAMAM” value (LAMAM; 655 g ai/ha) was 82.7% and the activity at 450 g/ha (LOLMU) was 68.5%. The “Mean % Control (16 DAT) CARPA” value (CARPA; 450 g ai/ha) was 90.7%, the “Mean % Control (16 DAT) CARPA” value (CARPA; 655 g ai/ha) was 95.0% and the “Mean % Control (16 DAT) SENGL” value (SENGL; 450 g ai/ha) was 80.7%. For the same molecule, the “Mean % Control (16 DAT) SENGL” value (SENGL; 655 g ai/ha) was 88.7%, the “Mean % Control (16 DAT) POAAN” value (POAAN [1]; 450 g ai/ha) was 80.0% and the “Mean % Control (16 DAT) POAAN” value (POAAN [1]; 655 g ai/ha) was 90.7%. For the same molecule, the “Mean % Control (17 DAT) STEME” value (STEME; 450 g ai/ha) was 53.3%, the “Mean % Control (17 DAT) STEME” value (STEME; 655 g ai/ha) was 90.0% and the “Mean % Control (16 DAT) OEOLA” value (OEOLA; 450 g ai/ha) was 81.7%. For the same molecule, the “Mean % Control (16 DAT) OEOLA” value (OEOLA; 655 g ai/ha) was 92.3%, the “Mean % Control (17 DAT) POAAN” value (POAAN [2]; 450 g ai/ha) was 66.7% and the “Mean % Control (17 DAT) POAAN” value (POAAN [2]; 655 g ai/ha) was 86.7%. For the same molecule, the “Mean % Control (17 DAT) GNAPU” value (GNAPU; 450 g ai/ha) was 78.3% and the “Mean % Control (17 DAT) GNAPU” value (GNAPU; 655 g ai/ha) was 98.7%.
